We go through six compounds from patent US20240383954A1, “PEPTIDE INHIBITORS OF INTERLEUKIN-23 RECEPTOR AND THEIR USE TO TREAT INFLAMMATORY DISEASES” (Janssen Biotech, Inc., priority 2020, published 2024).

By IC50 is commonly meant the concentration that gives 50% inhibition. Low readings indicate greater potency, high ones weaker potency.

Like-named read-outs stand apart in the source and are kept apart here. Starred links: 1 amine or outer side, 2 acyl side, 3 side chain; linkers in the order of their positions; H or OH if unused. Positions of bridges follow the written chain, without caps; N, C: chain ends. Non-standard residues stand in square brackets, D forms with d. Residues, ends and D or L forms follow the SMILES beside them. Trp(7-Me) = Cc1cccc2c(C[C@H](N)C(=O)O)c[nH]c12; Abu(4-yl) = O=C([C@H](CC[*:3])N[*:1])[*:2]; 2Nal = N[C@@H](Cc1ccc2ccccc2c1)C(=O)O; AEF = NCCOc1ccc(C[C@H](N)C(=O)O)cc1; αMeF = C[C@](N)(Cc1ccccc1)C(=O)O; Cit = NC(=O)NCCC[C@H](N)C(=O)O; Pen = CC(C)(S)[C@H](N)C(=O)O; αMeK = C[C@](N)(CCCCN)C(=O)O; Aib = CC(C)(N)C(=O)O

Assay in all cases: cell-based
Experiment [1] deals with T1, IL-23R (Homo sapiens, UniProt Q5VWK5). The conditions noted are these: PBMC pSTAT3 IC50 (nM), PBMCs from healthy donors, IL-23 5 ng/mL, 30 minutes, phosphorylated STAT3.
Experiment [2] concerns the target T1, IL-23R.
Method: After 7 days, cells were centrifuged, and resuspended in complete media at IE6 cells/mL. […] After 20 to 24 hours, IFNγ in the supernatant was quantified using Quantikine ELISA (RnD, Cat #DIF50).
The target in experiment [3] is T1, IL-23R. This is another data set of the same source.
From the text: DB Cells IL23R pSTAT3 Cell Assay
Changes in phospho-STAT3 levels in the cell lysates were detected using the Cisbio HTRF pSTAT3 Cellular Assay Kit, according to manufacturer's Two Plate Assay protocol.

T1 sequence (Q5VWK5 24-629): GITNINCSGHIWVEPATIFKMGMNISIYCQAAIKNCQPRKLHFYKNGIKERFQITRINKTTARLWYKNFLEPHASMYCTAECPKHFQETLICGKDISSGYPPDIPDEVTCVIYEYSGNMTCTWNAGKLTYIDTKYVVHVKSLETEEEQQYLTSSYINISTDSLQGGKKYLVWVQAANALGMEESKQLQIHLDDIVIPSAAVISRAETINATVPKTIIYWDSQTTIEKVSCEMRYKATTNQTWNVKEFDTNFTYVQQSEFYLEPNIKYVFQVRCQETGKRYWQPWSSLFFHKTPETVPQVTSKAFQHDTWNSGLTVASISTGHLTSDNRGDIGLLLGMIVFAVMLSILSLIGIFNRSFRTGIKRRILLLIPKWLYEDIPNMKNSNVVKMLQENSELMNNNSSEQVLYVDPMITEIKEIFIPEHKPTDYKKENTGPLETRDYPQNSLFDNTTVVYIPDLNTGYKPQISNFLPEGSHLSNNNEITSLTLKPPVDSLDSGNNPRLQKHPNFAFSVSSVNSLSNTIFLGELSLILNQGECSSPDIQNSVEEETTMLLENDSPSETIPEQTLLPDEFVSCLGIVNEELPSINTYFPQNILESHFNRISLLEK

As to `CCC(=O)N[C@H](CCCNC(=N)N)C(=O)N[C@@H]1C(=O)N[C@@H](CCC(N)=O)C(=O)N[C@@H]([C@@H](C)O)C(=O)N[C@@H](Cc2c[nH]c3ccccc23)C(=O)N[C@@H](CCC(N)=O)C(=O)N[C@H](C(=O)N[C@@H](Cc2ccc(OCCN)cc2)C(=O)N[C@@H](Cc2ccc3ccccc3c2)C(=O)NC2(C(=O)N[C@@H](CCCCNC(=O)C(F)(F)F)C(=O)N[C@@H](CC(N)=O)C(=O)NC3(C(N)=O)CCOCC3)CCOCC2)C(C)(C)SSC1(C)C` [Compound 6, [Propionic_acid]-[(D)Arg]-[Pen]-Q-T-W-Q-[Pen]-Phe[4-(2-aminoethoxy)]-[2-Nal]-[THP]-[Lys(COCF3)]-N-[THP]-NH2], the IC50 against IL-23R [1] was found to be 8.6 nM; against IL-23R [2], 16.8 nM.
As to `CC(=O)NCCCC[C@@H]1NC(=O)[C@H](Cc2c[nH]c3c(C)cccc23)NC(=O)[C@@H](CCCCN)NC(=O)[C@H](CC(N)=O)NC(=O)[C@@H](NC(C)=O)C(C)(C)SSC(C)(C)[C@@H](C(=O)N[C@@H](Cc2ccc(OCCN)cc2)C(=O)N[C@@H](Cc2ccc3ccccc3c2)C(=O)N[C@@](C)(CCCCN)C(=O)N[C@@H](CCCCNC(C)=O)C(=O)N[C@@H](CC(N)=O)C(=O)N[C@H](CC(C)C)C(N)=O)NC1=O` [Compound 73, Ac-[Pen]-N-[(D)Lys]-[W(7-Me)]-[Lys(Ac)]-[Pen]-Phe[4-(2-aminoethoxy)]-[2-Nal]-[a-MeLys]-[Lys(Ac)]-N-[(D)Leu]-NH2] (Ac-[Pen]N[dK][Trp(7-Me)]K(Ac)[Pen][AEF][2Nal][αMeK]K(Ac)N[dL]-NH2; disulfide 1-6), the IC50 against IL-23R [3] is 51.1 nM.
On the same count and under the same terms, to `CC(=O)NCCCC[C@@H]1NC(=O)[C@H](Cc2c[nH]c3c(C)cccc23)NC(=O)[C@@H](CC(=O)O)NC(=O)[C@H](CC(N)=O)NC(=O)[C@@H](NC(C)=O)C(C)(C)SSC(C)(C)[C@@H](C(=O)N[C@@H](Cc2ccc(OCCN)cc2)C(=O)N[C@@H](Cc2ccc3ccccc3c2)C(=O)N[C@@](C)(CCCCN)C(=O)N[C@@H](CCCCNC(C)=O)C(=O)N[C@@H](CC(N)=O)C(=O)N[C@H](CC(C)C)C(N)=O)NC1=O` [Compound 74, Ac-[Pen]-N-[(D)Asp]-[W(7-Me)]-[Lys(Ac)]-[Pen]-Phe[4-(2-aminoethoxy)]-[2-Nal]-[a-MeLys]-[Lys(Ac)]-N-[(D)Leu]-NH2] (Ac-[Pen]N[dD][Trp(7-Me)]K(Ac)[Pen][AEF][2Nal][αMeK]K(Ac)N[dL]-NH2; disulfide 1-6) belongs 73.1 nM; to `CC(=O)NCCCC[C@@H]1NC(=O)[C@H](Cc2c[nH]c3c(C)cccc23)NC(=O)[C@H]([C@@H](C)O)NC(=O)[C@H](CC(N)=O)NC(=O)[C@@H](NC(C)=O)C(C)(C)SSC(C)(C)[C@@H](C(=O)N[C@@H](Cc2ccc(OCCN)cc2)C(=O)N[C@@H](Cc2ccc3ccccc3c2)C(=O)N[C@@](C)(CCCCN)C(=O)N[C@@H](CCCCNC(C)=O)C(=O)N[C@@H](CC(N)=O)C(=O)N[C@@H](Cc2ccc(N)cc2)C(N)=O)NC1=O` [Compound 112, Ac-[Pen]-N-T-[W(7-Me)]-[Lys(Ac)]-[Pen]-Phe[4-(2-aminoethoxy)]-[2-Nal]-[a-MeLys]-[Lys(Ac)]-N-Phe[4-NH2]-NH2], 2.09 nM.
For the compound `CC(=O)NCCCC[C@@H]1NC(=O)[C@H](Cc2c[nH]c3c(C)cccc23)NC(=O)[C@H]([C@@H](C)O)NC(=O)[C@H](CCC(N)=O)NC(=O)[C@@H](NC(=O)[C@@H](CCCNC(=N)N)NC(C)=O)CCSC[C@@H](C(=O)N[C@@H](Cc2ccc(OCCN)cc2)C(=O)N[C@@H](Cc2ccc3ccccc3c2)C(=O)N[C@@](C)(CCCCN)C(=O)N[C@@H](CCCCNC(C)=O)C(=O)N[C@@H](CC(N)=O)C(=O)N[C@@](C)(Cc2ccccc2)C(N)=O)NC1=O` [Compound 201, Ac-[(D)Arg]-[Abu]-Q-T-[W(7-Me)]-[Lys(Ac)]-[Cys]-Phe[4-(2-aminoethoxy)]-[2-Nal]-[a-MeLys]-[Lys(Ac)]-N-[a-MePhe]-NH2] (Ac-[dR][Abu(4-yl)]QT[Trp(7-Me)]K(Ac)C[AEF][2Nal][αMeK]K(Ac)N[αMeF]-NH2; thioether 2-7), the IC50 at IL-23R [3] came to 12.7 nM. This IC50 lies about 6.1-fold higher than the previous one.
Compound `CC(=O)NCCCC[C@H](NC(=O)[C@](C)(CCCCN)NC(=O)[C@H](Cc1ccc2ccccc2c1)NC(=O)[C@H](Cc1ccc(OCCN)cc1)NC(=O)[C@H]1NC(=O)[C@H](CCCNC(N)=O)NC(=O)[C@H](Cc2c[nH]c3c(C)cccc23)NC(=O)[C@H]([C@@H](C)O)NC(=O)[C@H](CC(N)=O)NC(=O)[C@@H](NC(C)=O)C(C)(C)SSC1(C)C)C(=O)N[C@@H](CC(N)=O)C(=O)NC(C)(C)C(=O)N[C@H](Cc1ccc(O)cc1)C(N)=O` [Compound 202, Ac-[Pen]-N-T-[W(7-Me)]-[Cit]-[Pen]-Phe[4-(2-aminoethoxy)]-[2-Nal]-[a-MeLys]-[Lys(Ac)]-N-[Aib]-[(D)Tyr]-NH2] (Ac-[Pen]NT[Trp(7-Me)][Cit][Pen][AEF][2Nal][αMeK]K(Ac)N[Aib][dY]-NH2; disulfide 1-6) had an IC50 against IL-23R [3] of 0.637 nM.
